Assay results: patent publication US8586591B2, “Aminopyrazine derivative and medicine” (Nippon Shinyaku Co., Ltd., priority 2009, dated 2013)
Counter-ions that a name gives are not always drawn.

Experiments:
JAK3 tyrosine kinase = target: T1, JAK3 tyrosine kinase (Homo sapiens, UniProt P52333); assay: Test 1: inhibitory activity to JAK3 tyrosine kinase (ELISA); assay type: biochemical; settings: 25 μM ATP in substrate solution, 30° C. for 1 hour, n=2
T1 construct: purchased Carnabioscience Co
T1 sequence (P52333 1-1124): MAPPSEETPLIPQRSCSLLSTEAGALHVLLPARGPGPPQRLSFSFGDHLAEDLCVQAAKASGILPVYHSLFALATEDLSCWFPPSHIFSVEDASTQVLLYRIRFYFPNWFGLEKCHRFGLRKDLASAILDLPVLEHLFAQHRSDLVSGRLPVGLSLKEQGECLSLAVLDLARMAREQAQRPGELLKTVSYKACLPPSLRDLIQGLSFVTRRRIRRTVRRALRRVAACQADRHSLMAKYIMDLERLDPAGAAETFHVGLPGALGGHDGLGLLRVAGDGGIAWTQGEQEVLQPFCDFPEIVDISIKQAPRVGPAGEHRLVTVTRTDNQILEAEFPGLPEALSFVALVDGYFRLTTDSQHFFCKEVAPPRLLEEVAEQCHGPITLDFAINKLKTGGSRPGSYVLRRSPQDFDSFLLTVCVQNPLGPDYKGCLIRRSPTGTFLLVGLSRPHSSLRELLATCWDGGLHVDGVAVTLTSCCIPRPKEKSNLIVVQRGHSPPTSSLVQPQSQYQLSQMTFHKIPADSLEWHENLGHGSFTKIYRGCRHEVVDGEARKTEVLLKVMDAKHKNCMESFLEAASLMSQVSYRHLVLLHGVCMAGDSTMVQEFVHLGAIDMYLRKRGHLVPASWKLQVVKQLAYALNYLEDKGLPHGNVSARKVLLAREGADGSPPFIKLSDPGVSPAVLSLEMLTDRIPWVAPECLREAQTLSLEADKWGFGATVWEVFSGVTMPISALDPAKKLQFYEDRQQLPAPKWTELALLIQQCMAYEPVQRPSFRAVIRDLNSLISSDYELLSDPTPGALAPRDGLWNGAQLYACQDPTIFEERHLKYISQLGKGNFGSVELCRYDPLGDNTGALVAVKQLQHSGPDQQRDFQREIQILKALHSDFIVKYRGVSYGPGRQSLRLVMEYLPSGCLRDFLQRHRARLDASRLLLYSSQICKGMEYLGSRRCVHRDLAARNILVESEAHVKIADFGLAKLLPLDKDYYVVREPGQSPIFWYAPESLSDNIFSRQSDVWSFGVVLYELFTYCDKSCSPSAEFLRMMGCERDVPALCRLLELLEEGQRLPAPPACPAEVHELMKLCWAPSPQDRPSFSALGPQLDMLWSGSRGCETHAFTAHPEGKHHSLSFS
Outline: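 ELISA of JAK3 kinase activity with absorbance read at 450 nm. Compounds were tested from DMSO dilution series at 100-fold the measurement concentrations (1000–0.01 μM), diluted up to 20 times in assay buffer, against a DMSO negative control. IC50 was estimated by non-linear regression of absorbance.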

JAK2 tyrosine kinase = target: T2, JAK2 tyrosine kinase (Homo sapiens, UniProt O60674); assay: Test 1: inhibitory activity to JAK2 tyrosine kinase (ELISA); assay type: biochemical; settings: 25 μM ATP in substrate solution, 30° C. for 1 hour, n=2
T2 construct: purchased Carnabioscience Co
T2 sequence (O60674 whole entry): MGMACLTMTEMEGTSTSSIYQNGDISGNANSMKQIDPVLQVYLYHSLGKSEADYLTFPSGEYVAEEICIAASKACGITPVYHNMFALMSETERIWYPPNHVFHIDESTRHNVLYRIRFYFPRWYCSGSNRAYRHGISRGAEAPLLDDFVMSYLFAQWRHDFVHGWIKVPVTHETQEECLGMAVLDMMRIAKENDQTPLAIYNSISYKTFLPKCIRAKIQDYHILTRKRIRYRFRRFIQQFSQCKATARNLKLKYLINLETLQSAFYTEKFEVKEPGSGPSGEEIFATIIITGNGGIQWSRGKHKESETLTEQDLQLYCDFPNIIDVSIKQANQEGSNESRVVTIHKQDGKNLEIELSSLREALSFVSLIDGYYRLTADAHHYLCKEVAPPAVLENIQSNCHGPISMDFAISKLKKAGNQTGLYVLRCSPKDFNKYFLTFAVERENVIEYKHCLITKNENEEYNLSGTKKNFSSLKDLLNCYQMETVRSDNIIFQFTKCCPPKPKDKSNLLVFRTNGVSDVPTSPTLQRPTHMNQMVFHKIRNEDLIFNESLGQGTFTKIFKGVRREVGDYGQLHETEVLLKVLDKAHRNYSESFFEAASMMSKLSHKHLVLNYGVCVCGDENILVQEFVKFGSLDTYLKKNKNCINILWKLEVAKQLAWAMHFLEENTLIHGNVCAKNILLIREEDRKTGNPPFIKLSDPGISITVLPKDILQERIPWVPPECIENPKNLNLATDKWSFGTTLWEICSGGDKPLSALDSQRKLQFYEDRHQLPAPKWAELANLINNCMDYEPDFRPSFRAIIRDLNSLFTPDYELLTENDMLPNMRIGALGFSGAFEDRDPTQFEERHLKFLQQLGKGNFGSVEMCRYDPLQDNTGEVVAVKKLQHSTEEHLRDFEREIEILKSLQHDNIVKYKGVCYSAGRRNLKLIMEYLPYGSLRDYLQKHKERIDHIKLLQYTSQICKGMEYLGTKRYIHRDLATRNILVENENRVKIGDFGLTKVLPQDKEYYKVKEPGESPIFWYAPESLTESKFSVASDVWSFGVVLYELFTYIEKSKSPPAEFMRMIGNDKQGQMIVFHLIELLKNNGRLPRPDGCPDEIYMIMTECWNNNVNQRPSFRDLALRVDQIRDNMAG
Outline: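 This is an ELISA read at A450 (HRP anti-phosphotyrosine antibody, TMB) of biotin-peptide phosphorylation captured on streptavidin. Enzyme solution was 0.75 nM JAK2, and the substrate solution was 625 nM peptide with 25 μM ATP in Tris pH 7.5 buffer. The reaction ran 1 h at 30 °C with compounds in duplicate, and IC50 was fitted non-linearly.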

Compound	IC50 (JAK3 tyrosine kinase) [nM]	IC50 (JAK2 tyrosine kinase) [nM]
C[C@H](Nc1cc(-c2cc[nH]n2)cc(Nc2cnccn2)n1)c1ccc(F)cc1 [Example 29, (S)—N^2-[1-(4-Fluorophenyl)ethyl]-N^6-(pyrazin-2-yl)-4-(1H-pyrazol-3-yl)pyridine-2,6-diamine]	160	2
C[C@H](Nc1cccc(Nc2cnccn2)n1)c1ccc(F)cc1 [Example 117, (S)—N^2-[1-(4-Fluorophenyl)ethyl]-N^6-(pyrazin-2-yl)pyridine-2,6-diamine dihydrochloride]	190	2.7
C[C@H](Nc1nc(Nc2cnccn2)cc(N2CCN(S(=O)(=O)c3ccccc3)CC2)n1)c1ccc(F)cc1 [Example 114, (S)—N^2-[1-(4-Fluorophenyl)ethyl]-6-[4-(phenylsulfonyl)piperazin-1-yl]-N^4-(pyrazin-2-yl)pyrimidine-2,4-diamine hydrochloride]	66	4.8
COc1ccc(-c2cc(Nc3cnccn3)nc(N[C@@H](C)c3ccc(F)cc3)c2)cn1 [Example 6, (S)—N^2′-[1-(4-Fluorophenyl)ethyl]-6-methoxy-N^6′-(pyrazin-2-yl)-3,4′-bipyridine-2′,6′-diamine]	500	5.7
C[C@H](Nc1cc(OCCCO)cc(Nc2cnccn2)n1)c1ccc(F)cc1 [Example 41, hydrochloride]	51	1.1
C[C@H](Nc1cc(NC(N)=O)cc(Nc2cnccn2)n1)c1ccc(F)cc1 [Example 210, (S)-1-[2-[1-(4-Fluorophenyl)ethylamino]-6-(pyrazin-2-ylamino)pyridin-4-yl]urea]	180	3.2
CCn1cc(-c2cc(Nc3cnccn3)nc(N[C@@H](C)c3ccc(F)cc3)c2)cn1 [Example 46, (S)-4-(1-Ethyl-1H-pyrazol-4-yl)-N^2-[1-(4-fluorophenyl)ethyl]-N^6-(pyrazin-2-yl)pyridine-2,6-diamine]	93	3.7
Cc1cnc(Nc2cc(-c3cnn(C)c3)cc(N[C@@H](C)c3ccc(F)cc3)n2)cn1 [Example 214, (S)—N^2-[1-(4-Fluorophenyl)ethyl]-4-(1-methyl-1H-pyrazol-4-yl)-N^6-(5-methylpyrazin-2-yl)pyridine-2,6-diamine]	380	5.5
C[C@H](Nc1nc(Nc2cnccn2)cc(N2CCC[C@H]2C(N)=O)n1)c1ccc(F)cc1 [Example 64, (S)-1-{2-[(S)-1-(4-Fluorophenyl)ethylamino]-6-(pyrazin-2-ylamino)pyrimidin-4-yl}pyrrolidin-2-carboxamide hydrochloride]	220	7
C[C@H](Nc1nc(Nc2cnccn2)cc(-c2ccc(O)nc2)n1)c1ccc(F)cc1 [Example 26, (S)-5-{2-[1-(4-Fluorophenyl)ethylamino]-6-(pyrazin-2-ylamino)pyrimidin-4-yl}pyridin-2-ol]	28	0.27
C[C@H](Nc1nc(NCC(N)=O)cc(Nc2cnccn2)n1)c1ccc(F)cc1 [Example 79, (S)-2-{2-[1-(4-Fluorophenyl)ethylamino]-6-(pyrazin-2-ylamino)pyrimidin-4-ylamino}acetamide hydrochloride]	140	4.3
C[C@H](Nc1nc(Nc2cnccn2)cc(-c2ccoc2)n1)c1ccc(F)cc1 [Example 82, (S)—N^2-[1-(4-Fluorophenyl)ethyl]-6-(furan-3-yl)-N^4-(pyrazin-2-yl)pyrimidine-2,4-diamine hydrochloride]	99	1.7
C[C@H](Nc1nc(Nc2cnccn2)cc(N2CCC(N)C2)n1)c1ccc(F)cc1 (stereo partly drawn) [Example 59, 6-(3-Aminopyrrolidin-1-yl)-N^2-[(S)-1-(4-fluorophenyl)ethyl]-N^4-(pyrazin-2-yl)pyrimidine-2,4-diamine]	60	1.7
CC(=O)N[C@H]1CCN(c2cc(Nc3cnccn3)nc(N[C@@H](C)c3ccc(F)cc3)n2)C1 [Example 33, N-{(S)-1-[2-{[(S)-1-(4-Fluorophenyl)ethyl]amino}-6-(pyrazin-2-ylamino)pyrimidin-4-yl]pyrrolidin-3-yl}acetamide maleate]	30	0.4
COCn1cc(-c2cc(Nc3cnccn3)nc(N[C@@H](C)c3ccc(F)cc3)c2)cn1 [Example 219, (S)—N^2-[1-(4-Fluorophenyl)ethyl]-4-[1-(methoxymethyl)-1H-pyrazol-4-yl]-N^6-(pyrazin-2-yl)pyridine-2,6-diamine]	69	2.6
C[C@H](Nc1cc(N2CCN(S(C)(=O)=O)CC2)cc(Nc2cnccn2)n1)c1ccc(F)cc1 [Example 124, (S)—N^2-[1-(4-Fluorophenyl)ethyl]-4-[4-(methylsulfonyl)piperazin-1-yl]-N^6-(pyrazin-2-yl)pyridine-2,6-diamine hydrochloride]	66	1.3
C[C@H](Nc1nc(Nc2cnccn2)cc(-c2cccc(C#N)c2)n1)c1ccc(F)cc1 [Example 81, (S)-3-{2-[1-(4-Fluorophenyl)ethylamino]-6-(pyrazin-2-ylamino)pyrimidin-4-yl}benzonitrile]	480	5.6
C[C@H](Nc1nc(Nc2cnccn2)ccc1C(N)=O)c1ccc(F)cc1 [Example 187, (S)-2-[1-(4-Fluorophenyl)ethylamino]-6-(pyrazin-2-ylamino) nicotinamide]	400	2.4
C[C@H](Nc1nc(Nc2cnccn2)ccc1C(=O)N1CCOCC1)c1ccc(F)cc1 [Example 188, (S)-{2-[1-(4-Fluorophenyl)ethylamino]-6-(pyrazin-2-ylamino)pyridin-3-yl}(morpholino)methanone dihydrochloride]	120	3.7
CC(C)C1(O)CN(c2cc(Nc3cnccn3)nc(N[C@@H](C)c3ccc(F)cc3)c2)C1 [Example 204, (S)-1-{2-[1-(4-Fluorophenyl)ethylamino]-6-(pyrazin-2-ylamino)pyridin-4-yl}-3-isopropylazetidin-3-ol hydrochloride]	220	8.1
CNC1CN(c2cc(Nc3cnccn3)nc(N[C@@H](C)c3ccc(F)cc3)n2)C1 [Example 221, (S)—N^2-[1-(4-Fluorophenyl)ethyl]-6-[3-(methylamino)azetidin-1-yl]-N^4-(pyrazin-2-yl)pyrimidine-2,4-diamine]	59	1.5
C[C@H](Nc1nc(Nc2cnccn2)cc(-c2ccc(S(C)(=O)=O)cc2)n1)c1ccc(F)cc1 [Example 10, (S)—N^2-[1-(4-Fluorophenyl)ethyl]-6-[4-(methylsulfonyl)phenyl]-N^4-(pyrazin-2-yl)pyrimidine-2,4-diamine hydrochloride]	95	0.89
C[C@H](Nc1nc(Nc2cnccn2)cc(-c2cncnc2)n1)c1ccc(F)cc1 [Example 52, (S)—N^2-[1-(4-Fluorophenyl)ethyl]-N^6-(pyrazin-2-yl)-4,5′-bipyrimidine-2,6-diamine]	160	2
CCN(CC)C(=O)C1CN(c2cc(Nc3cnccn3)nc(N[C@@H](C)c3ccc(F)cc3)n2)C1 [Example 181, (S)—N,N-Diethyl-1-{2-[1-(4-fluorophenyl)ethylamino]-6-(pyrazin-2-ylamino)pyrimidin-4-yl}azetidine-3-carboxamide]	56	2.2
COc1ccc(-c2cc(Nc3cnccn3)nc(N[C@@H](C)c3ccc(F)cc3)n2)cn1 [Example 23, (S)—N^2-[1-(4-Fluorophenyl)ethyl]-6-(6-methoxypyridin-3-yl)-N^4-(pyrazin-2-yl)pyrimidine-2,4-diamine hydrochloride]	210	4.2
C[C@H](Nc1cc(-c2cc[nH]c2)cc(Nc2cnccn2)n1)c1ccc(F)cc1 [Example 116, (S)—N^2-[1-(4-Fluorophenyl)ethyl]-N^6-(pyrazin-2-yl)-4-(1H-pyrrol-3-yl)pyridine-2,6-diamine dihydrochloride]	340	5.3
